Source: publication PMC7308271, “Discovery of a new class of orthosteric antagonists with nanomolar potency at extrasynaptic GABAA receptors” (Scientific Reports, 2020)
Entries after “also recorded” stand apart in the source; their conditions may differ.

Columns and labels:
α1,2,6 GABAΑ receptors = assay: FMP assay, α1,2,6 receptors (summary); type: cell-based, human; settings: range over subtypes; read-out: potency (IC50) at α1,2,6 receptors
Experimental: (§1) HEK293 cells were maintained in DMEM containing GlutaMAX-I, supplemented with 10% FBS and 1% penicillin-streptomycin and incubated at 37 °C and a humidity of 5% CO2. For expression of δ-containing GABAΑ receptors, a HEK293 Flp-In^ΤΜ cell line stably expressing the human GABAΑ δ-subunits (referred to as δ-HEK) was used and the γ-containing subtypes was expressed in a background HEK293 Flp-In^ΤΜ cell line stably expressing the G-protein coupled peptide receptor NPBWR2 (referred to as HEK background)[26], both positively selected for using 200 μg/mL hygromycin B. α1β2γ2 receptors were stably expressed in a HEK293 cell line maintained as above but with no selection (gift from Marianne L. Jensen, Neurosearch). […]
(§2) The FMP assay was performed as previously described with a few modifications. […] Data was obtained as changes in fluorescence units (∆RFU) by measuring emission at 560 nm caused by excitation at 530 nm. […]
(§3) Data obtained in the FMP assay are given as relative changes in fluorescence units (ΔRFU) by subtracting the average of the baseline fluorescence signal from the peak fluorescence signal after compound addition. […]

[1] = test system: α3−5 containing GABAΑ receptors; assay: FMP assay, α3−5 containing receptors (summary); type: cell-based, human; settings: range over subtypes; read-out: potencies (IC50) at α3−5 containing receptors
Experimental: as §1, §2, §3

[2] = biological target: T1, human α4β1δ receptors in δ-HEK cells (Homo sapiens, UniProt P18505+P48169); assay: Whole-cell patch-clamp electrophysiology, concentration-response; type: cell-based
T1 construct: expressed in transfected cells; host or cells: δ-HEK (HEK293 Flp-In stably expressing human δ), transiently transfected with α4 and β1 1:1
Excerpt: (§4) To express recombinant GABAΑ receptors human α1, α2, α3, α5, α6, β2, γ2 (pcDNA3.1/Zeo) and α4, β1 (pUNIV)[26] subunit cDNA were transiently transfected into either δ-HEK or HEK background cells. δ-HEK cells were transfected with α- and β-subunits in a 1:1 ration whereas HEK background cells were transfected with α-, β- and γ-subunits in a 1:1:2 ratio. Human BGT1 (pcDNA5/FRT)[43] was transiently transfected into the δ-HEK cell line. δ-HEK cells transfected for whole-cell patch-clamp recordings were co-transfected with green fluorescent protein (GFP) as well as α- and β-subunits in a 0.5:1:1 ratio (0.8 μg + 1.6 μg + 1.6 μg in a 6 cm dish) in order to identify transfected cells. The transfection was carried out using Polyfect as transfection reagent according to the manufactures protocol expect for using half the recommended volume of Polyfect.

human BGT1 = biological target: T2, human BGT1 (Homo sapiens, UniProt P48065); assay: Fluorescence interference control: BGT1-mediated GABA uptake in the FMP assay; type: cell-based; settings: 110 μM GABA uptake by BGT1 in δ-HEK cells; 2027 at 30, 10, 3 μM
T2 construct: expressed in transfected cells; host or cells: δ-HEK cells, transient transfection (pcDNA5/FRT)
T2 sequence (P48065 1-614): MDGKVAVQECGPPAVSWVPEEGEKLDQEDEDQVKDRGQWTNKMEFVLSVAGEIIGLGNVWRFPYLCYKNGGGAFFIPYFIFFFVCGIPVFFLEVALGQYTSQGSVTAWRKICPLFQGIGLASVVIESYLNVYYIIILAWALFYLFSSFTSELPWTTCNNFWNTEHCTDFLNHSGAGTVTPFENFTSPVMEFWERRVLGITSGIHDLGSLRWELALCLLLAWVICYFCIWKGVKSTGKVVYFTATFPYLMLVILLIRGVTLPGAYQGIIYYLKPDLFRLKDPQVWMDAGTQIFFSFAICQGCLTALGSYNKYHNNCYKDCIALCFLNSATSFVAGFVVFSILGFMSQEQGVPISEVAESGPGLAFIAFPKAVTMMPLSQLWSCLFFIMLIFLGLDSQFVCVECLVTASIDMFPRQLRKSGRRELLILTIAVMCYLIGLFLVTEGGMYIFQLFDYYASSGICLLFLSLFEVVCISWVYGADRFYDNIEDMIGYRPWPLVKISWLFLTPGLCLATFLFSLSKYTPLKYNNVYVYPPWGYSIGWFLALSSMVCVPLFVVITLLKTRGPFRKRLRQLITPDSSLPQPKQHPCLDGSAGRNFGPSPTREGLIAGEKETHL
Excerpt: as §4
assay (perf ormed essentially as previously described in methods section and based on Al-Khawaja et al.).
in d-HEK cells was not decreased/quenched by 2027 in any of the tested concentrations. Data are shown as
means ± SD f rom a representative expe riment perf orme d in triplicate (n=2).
BGT1 expressed in HEK-δ cells

T1 sequence (P48169 36-554): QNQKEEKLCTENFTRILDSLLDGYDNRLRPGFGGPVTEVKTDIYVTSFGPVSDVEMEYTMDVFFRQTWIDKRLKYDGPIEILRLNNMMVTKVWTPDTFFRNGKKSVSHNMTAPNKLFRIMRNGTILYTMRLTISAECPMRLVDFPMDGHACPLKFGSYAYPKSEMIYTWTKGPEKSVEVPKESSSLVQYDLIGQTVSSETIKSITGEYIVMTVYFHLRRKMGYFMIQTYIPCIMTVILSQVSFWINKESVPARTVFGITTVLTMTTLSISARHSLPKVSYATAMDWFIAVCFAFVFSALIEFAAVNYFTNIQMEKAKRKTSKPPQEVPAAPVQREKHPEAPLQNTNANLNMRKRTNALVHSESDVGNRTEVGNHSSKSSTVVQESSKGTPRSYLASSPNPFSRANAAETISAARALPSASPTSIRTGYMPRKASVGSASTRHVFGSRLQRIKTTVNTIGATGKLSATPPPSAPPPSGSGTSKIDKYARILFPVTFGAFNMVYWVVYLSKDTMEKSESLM
T1 sequence (P18505 26-474): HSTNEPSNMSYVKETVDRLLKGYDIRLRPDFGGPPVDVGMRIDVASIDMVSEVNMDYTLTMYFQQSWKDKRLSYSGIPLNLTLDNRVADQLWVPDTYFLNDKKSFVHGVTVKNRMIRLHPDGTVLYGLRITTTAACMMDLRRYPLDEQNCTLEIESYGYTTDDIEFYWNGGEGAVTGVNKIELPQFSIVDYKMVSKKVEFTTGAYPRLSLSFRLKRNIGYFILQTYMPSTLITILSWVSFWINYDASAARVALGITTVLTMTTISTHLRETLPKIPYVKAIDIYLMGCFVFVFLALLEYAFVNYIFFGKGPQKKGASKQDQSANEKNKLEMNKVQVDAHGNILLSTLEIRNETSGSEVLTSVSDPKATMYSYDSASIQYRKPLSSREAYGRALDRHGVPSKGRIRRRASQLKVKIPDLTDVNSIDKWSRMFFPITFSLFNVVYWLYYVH
T1 sequence (O14764 25-452 partner): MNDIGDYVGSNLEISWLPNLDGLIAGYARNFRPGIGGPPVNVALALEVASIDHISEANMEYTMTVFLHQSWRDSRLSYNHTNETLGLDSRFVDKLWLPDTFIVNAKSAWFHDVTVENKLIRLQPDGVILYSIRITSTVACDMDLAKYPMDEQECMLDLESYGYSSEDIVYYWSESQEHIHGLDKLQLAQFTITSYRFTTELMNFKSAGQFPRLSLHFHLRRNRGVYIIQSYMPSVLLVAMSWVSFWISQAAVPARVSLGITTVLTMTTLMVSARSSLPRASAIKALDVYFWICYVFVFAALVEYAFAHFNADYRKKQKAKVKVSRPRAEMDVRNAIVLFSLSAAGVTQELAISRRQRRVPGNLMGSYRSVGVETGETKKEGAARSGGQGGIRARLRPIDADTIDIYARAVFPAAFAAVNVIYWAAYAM

IC50 (α1,2,6 GABAΑ receptors)	IC50 [1]	IC50 [2]	potency in patch-clamp relative to FMP assay ([2]; α4β1δ)	SMILES	interference with / quenching of the fluorescence signal (human BGT1)
240 to 790 nM	37 to 88 nM	10.8 nM	9 times	O=C(Nc1cccc(C(=O)N2CCC3(CCNCC3)CC2)c1)c1cccs1 [compound 018, N-(3-(3,9-diazaspiro[5.5]undecane-3-carbonyl)phenyl)thiophene-2-carboxamide]	
				CC(=O)Nc1cccc(C(=O)N2CCC3(CCNCC3)CC2)c1 [compound 2027, N-(3-(3,9-diazaspiro[5.5]undecane-3-carbonyl)phenyl)acetamide]	does not quench; also recorded: do not interfere
